{"source": "patent US9133484B2", "about": "“Transfection agent” (3-D MATRIX, LTD., priority 2008, dated 2015)", "key": {"[1]": {"assay": "Cytotoxicity, MTT cell proliferation assay (Cell Titer 96 Aqueous One Solution)", "format": "cell-based", "settings": "human, U87MG malignant glioma cells", "experimental": "Cytotoxicity was evaluated using cultured human cells for a peptide surfactant and two types of currently widely used cationic liposome-mediated gene transfer agents.\n<Materials> • *Added Substances • 1. Peptide surfactant (sequence: Ac-AAAAAAK-NH2(SEQ ID NO: 17), Celtek) • 2. Lipofectamine 2000 (Invitrogen) • 3. siFECTOR (B-Bridge International, Inc.) • *Cells • Cultured human malignant glioma cells (U87MG, acquired from ATCC) • *MTT Assay Reagent (for cell proliferation assay) • Cell Titer 96 Aqueous One Solution Cell Proliferation Assay Kit (Promega)\nThe cells were seeded in a 96-well plate in accordance with the recommended ATCC protocol (cell density: 2×10^4/well) followed by incubating overnight. The medium was replaced with fresh medium and the substances were added (final concentrations: 0.0005, 0.001, 0.005, 0.01, 0.05, 0.1, 0.5, 1, 5, 10, 25, 50, 75, 100, 250 and 500 μg/ml). The cells were cultured for 24 hours. After culturing, Cell Titer 96 Aqueous One Solution was added (20 μl/well) followed by measuring optical absorbance at 495 nm with a plate reader 4 hours later to quantify the number of viable cells."}, "[2]": {"system": "cultured human malignant glioma cells (U87MG, T98G, U251MG)", "assay": "Introduction of Cy3-labeled siRNA into cells, fluorescence microscopy", "format": "cell-based", "settings": "siRNA 50 nM plus peptide surfactant 20 μg/ml, 8 hours, all three types of cells", "experimental": "The introduction of siRNA into cells by peptide surfactant was confirmed by microscopic observation of fluorescent-labeled siRNA.\n<Materials> • *Peptide surfactant • Sequence: Ac-AAAAAAK-NH2 (SEQ ID NO: 17) (Celtek) • *siRNA • siRNA/MMP-2 (Santa Cruz) • *siRNA fluorescent labeling reagent • Label IT Cy-3 Labeling Kit (Mirus) • *Cells • Three types of cultured human malignant glioma cells (U87MG, T98G, U251MG, each acquired from ATCC)\nsiRNA/MMP-2 was labeled with Cy3 using the siRNA fluorescent labeling reagent in accordance with the Mirus protocol. 5000 of the cells were seeded into a chambered slide glass in accordance with the ATCC protocol and incubated for overnight. After removing the medium, siRNA to a final concentration of 50 nM and peptide surfactant to a final concentration of 20 μg/ml were added to 1 ml of medium followed by culturing for 8 hours. In a control group, only siRNA was cultured at a final concentration of 50 nM in 1 ml of medium."}, "[3]": {"system": "cultured human malignant glioma cells (U87MG, T98G, U251MG)", "assay": "Time-based changes in amount of siRNA introduced into cells (RFU)", "format": "cell-based", "settings": "siRNA 50 nM, peptide surfactant 20 μg/ml (FIG. 2)", "experimental": "Time-based changes in the amounts of siRNA introduced into cells by peptide surfactant were examined by microscopic observation of fluorescent-labeled siRNA.\n<Materials> • *Peptide surfactant • Sequence: Ac-AAAAAAK-NH2 (SEQ ID NO: 17) (Celtek) • *Peptide surfactant concentrations: • 0, 0.5, 1.0, 5.0, 10.0, 20.0, 25.0 μg/ml • *siRNA • siRNA/MMP-2 (Santa Cruz) • siRNA fluorescent labeling reagent • Label IT Cy-3 Labeling Kit (Mirus) • *Cells • Three types of cultured human malignant glioma cells (U87MG, T98G, U251MG, acquired from ATCC)\nsiRNA/MMP-2 was labeled with Cy3 using the siRNA fluorescent labeling reagent in accordance with the Minis standard protocol. The labeled siRNA was then mixed with the peptide surfactant. siRNA to a final concentration of 50 nM and peptide surfactant to a final concentration of 20 μg/ml were administered to 1×10^5 cells seeded in a 24-well plate containing medium at 1 ml/well, followed by incubating for 0.5, 1, 2, 4, 8, 16 and 24 hours. After washing the wells with PBS, the cells were recovered and transferred to a 96-well plate where they were measured for optical absorbance."}, "[4]": {"system": "cultured human malignant glioma cells (U87MG, T98G, U251MG)", "assay": "Relationship between peptide surfactant concentration and siRNA introduction efficiency (RFU)", "format": "cell-based", "experimental": "The manner in which the efficiency of introduction of siRNA into cells is dependent on concentration of peptide surfactant was examined by microscopic observation of fluorescent-labeled siRNA.\n<Materials> • *Peptide surfactant • Sequence: Ac-AAAAAAK-NH2 (SEQ ID NO: 17) (Celtek) • *Peptide surfactant concentrations: • 0, 0.5, 1.0, 5.0, 10.0, 20.0, 25.0 μg/ml • *siRNA • siRNA/MMP-2 (Santa Cruz) • *siRNA fluorescent labeling reagent • Label IT Cy-3 Labeling Kit (Mirus) • *Cells • Three types of cultured human malignant glioma cells (U87MG, T98G, U251MG, acquired from ATCC)\nsiRNA/MMP-2 was labeled with Cy3 using the siRNA fluorescent labeling reagent in accordance with the Minis standard protocol. The labeled siRNA was then mixed with the peptide surfactant. siRNA to a final concentration of 50 nM and peptide surfactant to final concentrations of 0, 0.5, 1, 5, 10, 20 and 25 μg/ml were administered to 1×10^5 cells seeded in a 24-well plate containing medium at 1 ml/well, followed by culturing for 8 hours. After washing the wells with PBS, the cells were recovered and transferred to a 96-well plate where they were measured for optical absorbance."}, "[5]": {"system": "MMP-2 mRNA", "assay": "RNA interference effect by RT-PCR (MMP-2 target, beta-actin internal standard)", "format": "cell-based, human", "settings": "siRNA 50 nM/peptide surfactant 20 μg/ml, 8 hours, U87MG, T98G, U251MG (FIGS. 4 to 6)", "experimental": "siRNA introduced into cells by peptide surfactant was confirmed to have RNA interference ability by RT-PCR.\n<Materials> • *Peptide surfactant • Sequence: Ac-AAAAAAK-NH2 (SEQ ID NO: 17) (Celtek) • *Cells • Three types of cultured human malignant glioma cells (U87MG, T98G, U251MG, acquired from ATCC)\n1×10^5 cells were seeded into a 24-well plate and cultured overnight in accordance with the ATCC standard protocol. After removing the medium, the following solutions were added to the final concentrations indicated below followed by culturing for 8 hours under the same culturing conditions as previously described. • (1) Blank control (medium only) • (2) Random oligo siRNA (Dharmacon)/peptide surfactant 20 μg/ml • (3) siRNA 50 nM • (4) Peptide surfactant 20 μg/ml • (5) siRNA 50 nM/peptide surfactant 20 μg/ml\n[…] was reverse-transcribed to cDNA using the Taqman Gene Expression Cell-to-Ct Kit (Applied Biosystems). Quantitative analysis was carried out using the Applied Biosystems 7500 Real-Time PCR System using MMP-2 for the target and beta-actin for the internal standard by Gene Expression Assay (Applied Biosystems)."}}, "data": [{"substance": "Ac-AAAAAAK-NH2 [peptide surfactant, Ac-AAAAAAK-NH2]", "values": [{"measurement": "CC50 at 24 h", "setting": "[1]", "result": 286, "unit": "µg/mL"}, {"measurement": "Uptake of Cy3-labeled siRNA", "setting": "[2]", "result": "confirmed"}, {"measurement": "relative fluorescence units (RFU), siRNA incorporated into cells", "setting": "[3]; culturing for 1 to 8 hours", "result": "increased nearly proportionately"}, {"measurement": "RFU levels", "setting": "[3]; culturing for longer than 8 hours", "result": "essentially reached a plateau"}, {"measurement": "RFU versus peptide surfactant concentration (introduction of siRNA into cells)", "setting": "[4]; 0-25 μg/ml peptide surfactant, siRNA 50 nM, 8 hours, all three cell types (FIG. 3)", "result": "increases in RFU in proportion to increases in concentration"}, {"measurement": "concentration at which dose-dependent increases in RFU weakened", "setting": "[4]; Y98G cells, siRNA 50 nM, 8 hours", "result": "≥ 10", "unit": "µg/mL"}, {"measurement": "introduction of siRNA into cells", "setting": "[4]; peptide surfactant 20 μg/ml for 8 hours (with results of Example 3)", "result": "adequately and significantly result in introduction of siRNA into cells"}, {"measurement": "Expression of MMP-2 mRNA", "setting": "[5]", "result": "significantly inhibited"}]}]}
